Results reported in USRE48335E1, “Polymyxin derivatives as antimicrobial compounds” (priority 2014, dated 2020).
Converted amounts (≈) assume the structure as drawn. Positions of bridges follow the written chain, without caps; N, C: chain ends. Non-standard residues stand in square brackets, D forms with d. Residues, ends and D or L forms follow the SMILES beside them. *: point of attachment. Tle = CC(C)(C)[C@H](N)C(=O)O; dNva = CCC[C@@H](N)C(=O)O; Octanoyl = CCCCCCCC(=O)*; Orn = NCCC[C@H](N)C(=O)O; Dab = NCC[C@H](N)C(=O)O; Dap = NC[C@H](N)C(=O)O; Aib = CC(C)(N)C(=O)O

Legend:
Enterobacter cloacae = system: Enterobacter cloacae
Protocol: (§1) MICs of the lipopeptides (trifluoroacetic acid salt, TFA) were determined by broth microdilution in cation-adjusted Mueller-Hinton broth (CAMHB) (Oxoid Australia, Thebarton, SA, Australia) according to Clinical and Laboratory Standards Institute standards (Clinical and Laboratory Standards Institute. Performance standards for antimicrobial susceptibility testing; eighteenth informational supplement M100-S18. Wayne, Pa., 2008). Polymyxin B (sulphate) was employed as control. […]

Pseudomonas aeruginosa = system: Pseudomonas aeruginosa
Protocol: as §1

Acinetobacter baumannii = system: Acinetobacter baumannii
Protocol: as §1

| SMILES | Minimum inhibitory concentration, Ec FADDI-EC001 (Enterobacter cloacae) | Minimum inhibitory concentration, Ec FADDI-EC003 (Enterobacter cloacae) | Minimum inhibitory concentration, Ec FADDI-EC006 (Enterobacter cloacae) | Minimum inhibitory concentration, Pa ATCC 27853 (Pseudomonas aeruginosa) | Minimum inhibitory concentration, Pa FADDI-PA022 (Pseudomonas aeruginosa) | Minimum inhibitory concentration, Pa FADDI-PA025 (Pseudomonas aeruginosa) | Minimum inhibitory concentration, Ab A ATCC 17978 (Acinetobacter baumannii) | Minimum inhibitory concentration, Ab ATCC 19606 (Acinetobacter baumannii) | Minimum inhibitory concentration, Ab FADDI-AB034 (Acinetobacter baumannii) |
| --- | --- | --- | --- | --- | --- | --- | --- | --- | --- |
| CCCCCCCC(=O)N[C@@H](CCN)C(=O)N[C@H](C(=O)N[C@@H](CN)C(=O)N[C@H]1CCNC(=O)[C@H]([C@@H](C)O)NC(=O)[C@H](CCN)NC(=O)[C@H](CCN)NC(=O)C(C)(C)NC(=O)[C@@H](CC(C)C)NC(=O)[C@H](CCN)NC1=O)[C@@H](C)O [Compound 45] (Octanoyl-[Dab]T[Dap][Dab][Dab][dL][Aib][Dab][Dab]T; lactam 4-C) | 0.5 mg/L (≈ 0.449 µM) | 0.25 mg/L (≈ 0.225 µM) | 0.5 mg/L (≈ 0.449 µM) | 0.5 mg/L (≈ 0.449 µM) | 1 mg/L (≈ 0.898 µM) | 16 mg/L (≈ 14.4 µM) | 4 mg/L (≈ 3.59 µM) | 8 mg/L (≈ 7.19 µM) | 2 mg/L (≈ 1.8 µM) |
| CCCCCCCC(=O)N[C@@H](CCN)C(=O)N[C@H](C(=O)N[C@@H](CN)C(=O)N[C@H]1CCNC(=O)[C@H]([C@@H](C)O)NC(=O)[C@H](CCN)NC(=O)[C@H](CCN)NC(=O)[C@H](C(C)(C)C)NC(=O)[C@@H](CC(C)C)NC(=O)[C@H](CCN)NC1=O)[C@@H](C)O [Compound 47] (Octanoyl-[Dab]T[Dap][Dab][Dab][dL][Tle][Dab][Dab]T; lactam 4-C) | 0.5 mg/L (≈ 0.438 µM) | 0.5 mg/L (≈ 0.438 µM) | 0.25 mg/L (≈ 0.219 µM) | 1 mg/L (≈ 0.876 µM) | 1 mg/L (≈ 0.876 µM) | 8 mg/L (≈ 7.01 µM) | 2 mg/L (≈ 1.75 µM) | 8 mg/L (≈ 7.01 µM) | 1 mg/L (≈ 0.876 µM) |
| CCCCCCCC(=O)N[C@@H](CN)C(=O)N[C@H](C(=O)N[C@@H](CN)C(=O)N[C@H]1CCNC(=O)[C@H]([C@@H](C)O)NC(=O)[C@H](CCN)NC(=O)[C@H](CCN)NC(=O)[C@H]([C@@H](C)O)NC(=O)[C@@H](CC(C)C)NC(=O)[C@H](CCN)NC1=O)[C@@H](C)O [Compound 48] (Octanoyl-[Dap]T[Dap][Dab][Dab][dL]T[Dab][Dab]T; lactam 4-C) | 0.25 mg/L (≈ 0.224 µM) | <0.125 mg/L | <0.125 mg/L | 0.5 mg/L (≈ 0.448 µM) | 2 mg/L (≈ 1.79 µM) | 4 mg/L (≈ 3.59 µM) | 1 mg/L (≈ 0.897 µM) | 1 mg/L (≈ 0.897 µM) | 1 mg/L (≈ 0.897 µM) |
| CCCCCCCC(=O)N[C@@H](CCN)C(=O)N[C@H](C(=O)N[C@@H](CN)C(=O)N[C@H]1CCNC(=O)[C@H]([C@@H](C)O)NC(=O)[C@H](CCN)NC(=O)[C@H](CCN)NC(=O)[C@H]([C@@H](C)O)NC(=O)[C@@H](CCC)NC(=O)[C@H](CCN)NC1=O)[C@@H](C)O [Compound 49] (Octanoyl-[Dab]T[Dap][Dab][Dab][dNva]T[Dab][Dab]T; lactam 4-C) | 0.5 mg/L (≈ 0.448 µM) | 0.5 mg/L (≈ 0.448 µM) | 0.25 mg/L (≈ 0.224 µM) | 0.5 mg/L (≈ 0.448 µM) | 0.25 mg/L (≈ 0.224 µM) | 16 mg/L (≈ 14.3 µM) | 0.5 mg/L (≈ 0.448 µM) | 1 mg/L (≈ 0.897 µM) | 0.5 mg/L (≈ 0.448 µM) |
| CCCCCCCC(=O)N[C@@H](CCN)C(=O)N[C@H](C(=O)N[C@@H](CN)C(=O)N[C@H]1CCNC(=O)[C@H]([C@@H](C)O)NC(=O)[C@H](CN)NC(=O)[C@H](CCN)NC(=O)[C@H]([C@@H](C)O)NC(=O)[C@@H](CC(C)C)NC(=O)[C@H](CCN)NC1=O)[C@@H](C)O [Compound 50] (Octanoyl-[Dab]T[Dap][Dab][Dab][dL]T[Dab][Dap]T; lactam 4-C) | <0.125 mg/L | <0.125 mg/L | <0.125 mg/L | 1 mg/L (≈ 0.897 µM) | 0.5 mg/L (≈ 0.448 µM) | >32 mg/L | 0.5 mg/L (≈ 0.448 µM) | 0.5 mg/L (≈ 0.448 µM) | 1 mg/L (≈ 0.897 µM) |
| CCCCCCCC(=O)N[C@@H](CCN)C(=O)N[C@H](C(=O)N[C@@H](CN)C(=O)N[C@H]1CCNC(=O)[C@H]([C@@H](C)O)NC(=O)[C@H](CCN)NC(=O)[C@H](CN)NC(=O)[C@H]([C@@H](C)O)NC(=O)[C@@H](CC(C)C)NC(=O)[C@H](CCN)NC1=O)[C@@H](C)O [Compound 51] (Octanoyl-[Dab]T[Dap][Dab][Dab][dL]T[Dap][Dab]T; lactam 4-C) | 0.25 mg/L (≈ 0.224 µM) | 0.25 mg/L (≈ 0.224 µM) | 1 mg/L (≈ 0.897 µM) | 1 mg/L (≈ 0.897 µM) | 0.5 mg/L (≈ 0.448 µM) | >32 mg/L | 4 mg/L (≈ 3.59 µM) | 4 mg/L (≈ 3.59 µM) | 8 mg/L (≈ 7.17 µM) |
| CCCCCCCC(=O)N[C@@H](CCN)C(=O)N[C@H](C(=O)N[C@@H](CN)C(=O)N[C@H]1CCNC(=O)[C@H]([C@@H](C)O)NC(=O)[C@H](CCN)NC(=O)[C@H](CCN)NC(=O)[C@H]([C@@H](C)O)NC(=O)[C@@H](CC(C)C)NC(=O)[C@H](CN)NC1=O)[C@@H](C)O [Compound 52] (Octanoyl-[Dab]T[Dap][Dab][Dap][dL]T[Dab][Dab]T; lactam 4-C) | 0.25 mg/L (≈ 0.224 µM) | 0.25 mg/L (≈ 0.224 µM) | 0.5 mg/L (≈ 0.448 µM) | 0.5 mg/L (≈ 0.448 µM) | 1 mg/L (≈ 0.897 µM) | >32 mg/L | 0.5 mg/L (≈ 0.448 µM) | 1 mg/L (≈ 0.897 µM) | 0.5 mg/L (≈ 0.448 µM) |
| CCCCCCCC(=O)N[C@@H](CCN)C(=O)N[C@H](C(=O)N[C@@H](CN)C(=O)N[C@H]1CCNC(=O)[C@H]([C@@H](C)O)NC(=O)[C@H](CCCN)NC(=O)[C@H](CCN)NC(=O)[C@H]([C@@H](C)O)NC(=O)[C@@H](CC(C)C)NC(=O)[C@H](CCN)NC1=O)[C@@H](C)O [Compound 53] (Octanoyl-[Dab]T[Dap][Dab][Dab][dL]T[Dab][Orn]T; lactam 4-C) | 0.5 mg/L (≈ 0.437 µM) | 2 mg/L (≈ 1.75 µM) | 8 mg/L (≈ 7 µM) | 8 mg/L (≈ 7 µM) | 2 mg/L (≈ 1.75 µM) | >32 mg/L | 8 mg/L (≈ 7 µM) | 16 mg/L (≈ 14 µM) | 8 mg/L (≈ 7 µM) |
